In the supplement of paper PMC8497498:

Key:
[1] = test system: Plasmodium vivax liver stage (primary human hepatocyte culture)
Description: (§1)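 Dose-response of P. vivax liver stages in primary human hepatocytes, with 8 points (10 uM-[…], v1) or 12 points in duplicate (50 uM-280 pM, v2). Read-out is high-content imaging of schizont net growth area, hypnozoite quantity and hepatic nuclei. EC50 and CC20 (20% nuclei loss) were fitted in CDD Vault from the highest-quality independent experiment; toxic-dose bell-shaped points were masked. '>' marks the highest concentration with less than 50% activity, and ND means a non-sigmoidal curve.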

[2] = test system: primary human hepatocytes; assay: CC20 hepatic nuclei (20% reduction); higher = less toxic
Description: as §1

[3] = test system: Plasmodium vivax liver stage (primary human hepatocyte culture); assay: maximum inhibition of schizont net growth area; higher = more active
Description: as §1

[4] = P. vivax isolate: Pv657, hepatocyte lot: BGW, assay mode: Radical Cure, 8-day (treatment from day 5 post-infection)
[5] = P. vivax isolate: Pv668, hepatocyte lot: BGW, assay mode: Radical Cure, 8-day (treatment from day 5 post-infection)
[6] = P. vivax isolate: Pv458, hepatocyte lot: UBV, assay mode: Radical Cure, 8-day (treatment from day 5 post-infection)
[7] = P. vivax isolate: Pv836, hepatocyte lot: BGW, assay mode: Radical Cure, 8-day (treatment from day 5 post-infection)
[8] = P. vivax isolate: IVS16-38, hepatocyte lot: PDC, assay mode: Prophylactic, 6-day
[9] = P. vivax isolate: Pv923, hepatocyte lot: BGW, assay mode: Radical Cure, 8-day (treatment from day 5 post-infection)
[10] = P. vivax isolate: Pv728, hepatocyte lot: BGW, assay mode: Radical Cure, 8-day (treatment from day 5 post-infection)
[11] = P. vivax isolate: Pv557, hepatocyte lot: UBV, assay mode: Radical Cure, 8-day (treatment from day 5 post-infection)
[12] = P. vivax isolate: Pv914, hepatocyte lot: BGW, assay mode: Prophylactic, 6-day
[13] = P. vivax isolate: Pv395, hepatocyte lot: UBV, assay mode: Prophylactic, 6-day
[14] = P. vivax isolate: Pv772, hepatocyte lot: BGW, assay mode: Prophylactic, 6-day

`Nc1ncc(-c2ccc(C(F)(F)F)nc2)cc1-c1ccc(C(F)(F)F)nc1` was tested, and the EC50 hypnozoite quantity [1, 4] was over 50 µM, the “EC50 schizont net growth area” value [1, 4] was 0.19 µM and the CC20 hepatic nuclei [2, 4] was over 50 µM. For the same compound, the maximum inhibition [3, 4] was 87.5%.

`Cc1ccc(Nc2nc(-c3ccccn3)cs2)nc1` was tested, and the EC50 hypnozoite quantity [1, 5] was 19.9 µM, the CC20 hepatic nuclei [2, 5] was over 50 µM and the maximum inhibition [3, 5] was 90.9%.

In the case of `CN1CCN(C(c2cccs2)c2ccc3cccnc3c2O)CC1` (stereo unspecified), the EC50 hypnozoite quantity [1, 6] was over 10 µM, the CC20 hepatic nuclei [2, 6] was over 10 µM and the maximum inhibition [3, 6] was 60.5%.

`COc1ccc(-c2nn(C(C)C)c3ncnc(N)c23)cc1OC` was tested, and the EC50 hypnozoite quantity [1, 4] was over 50 µM, the “EC50 schizont net growth area” value [1, 4] was 0.294 µM and the CC20 hepatic nuclei [2, 4] was over 50 µM. For the same compound, the maximum inhibition [3, 4] was 71.3%.

For `c1ccn2c(Sc3ncnc4sccc34)ncc2c1`, the EC50 hypnozoite quantity [1, 7] was over 50 µM, the “EC50 schizont net growth area” value [1, 7] was over 5.56 µM and the CC20 hepatic nuclei [2, 7] was 41.4 µM. It also gave a maximum inhibition [3, 7] of 69.4%.

`COc1ccccc1CNC(=O)CCn1c(=O)[nH]c2ccccc2c1=O` was tested, and the EC50 hypnozoite quantity [1, 8] was over 10 µM, the “EC50 schizont net growth area” value [1, 8] was 0.68 µM and the CC20 hepatic nuclei [2, 8] was over 10 µM. For the same compound, the maximum inhibition [3, 8] was 98.3%.

With `CS(=O)(=O)c1cccc(-c2cnc3[nH]cc(-c4ccc(CCC(=O)O)cc4)c3c2)c1` the EC50 hypnozoite quantity [1, 9] was over 50 µM, the “EC50 schizont net growth area” value [1, 9] was 0.418 µM and the CC20 hepatic nuclei [2, 9] was over 50 µM. For the same compound, the maximum inhibition [3, 9] was 99.2%.

With `O=C(Nc1ccc(N2CCNCC2)cc1)c1ccn2ncc(-c3cccc(Cl)c3)c2n1` the EC50 hypnozoite quantity [1, 9] was over 50 µM, the “EC50 schizont net growth area” value [1, 9] was over 50 µM and the CC20 hepatic nuclei [2, 9] was over 1.85 µM. The maximum inhibition [3, 9] was 45.8%.

With `N#CC(C#N)=NNc1cc(Cl)cc(Cl)c1` the EC50 hypnozoite quantity [1, 5] was over 50 µM, the “EC50 schizont net growth area” value [1, 5] was 4.04 µM and the CC20 hepatic nuclei [2, 5] was 5.21 µM. For the same compound, the maximum inhibition [3, 5] was 85.1%.

`COc1ccc(C(=O)C(CCC(CNC(C)(C)C)C(=O)c2ccc(OC)cc2)CNC(C)(C)C)cc1` (stereo unspecified) was tested, and the EC50 hypnozoite quantity [1, 10] was over 50 µM, the “EC50 schizont net growth area” value [1, 10] was 16.6 µM and the CC20 hepatic nuclei [2, 10] was 40.8 µM. For the same compound, the maximum inhibition [3, 10] was 88.7%.

In the case of `Cc1ccnc(Nc2nc(-c3ccccn3)cs2)c1`, the EC50 hypnozoite quantity [1, 11] was over 50 µM, the “EC50 schizont net growth area” value [1, 11] was 1.79 µM and the CC20 hepatic nuclei [2, 11] was over 5.56 µM. The maximum inhibition [3, 11] was 84.1%.

In the case of `CCN(CC)CCCC(C)Nc1ccnc2cc(Cl)ccc12` (stereo unspecified) [Chloroquine Diphosphate], the EC50 hypnozoite quantity [1, 12] was over 16.7 µM, the “EC50 schizont net growth area” value [1, 12] was over 5.56 µM and the CC20 hepatic nuclei [2, 12] was over 16.7 µM. For the same compound, the maximum inhibition [3, 12] was 99.1%.

For `O=C(Nc1nc(-c2ccccn2)cs1)C1CC1c1ccccc1F` (stereo unspecified), the EC50 hypnozoite quantity [1, 13] was over 10 µM, the CC20 hepatic nuclei [2, 13] was over 10 µM and the maximum inhibition [3, 13] was 94.3%.

In the case of `CC1(CN2CCC(n3c(O)nc4ccccc43)CC2)OCc2ccccc2-n2cccc21` (stereo unspecified), the EC50 hypnozoite quantity [1, 10] was over 10 µM, the “EC50 schizont net growth area” value [1, 10] was 0.395 µM and the CC20 hepatic nuclei [2, 10] was over 10 µM. For the same compound, the maximum inhibition [3, 10] was 99.2%.

In the case of `O=C(Nc1ccc([N+](=O)[O-])cc1)Nc1cc(OCC(F)(F)F)cc(OCC(F)(F)F)c1`, the EC50 hypnozoite quantity [1, 6] was over 10 µM, the “EC50 schizont net growth area” value [1, 6] was 3.33 µM and the CC20 hepatic nuclei [2, 6] was over 3.33 µM. It also gave a maximum inhibition [3, 6] of 75.3%.

With `CCn1ncc2c(NC3CCOCC3)c(CNC(=O)c3ccnn3C)c(C)nc21` the EC50 hypnozoite quantity [1, 10] was over 50 µM, the “EC50 schizont net growth area” value [1, 10] was 0.0266 µM and the CC20 hepatic nuclei [2, 10] was over 50 µM. For the same compound, the maximum inhibition [3, 10] was 103%.

For `CN(C)CCCNc1c2ccccc2nc2ccccc12`, the EC50 hypnozoite quantity [1, 5] was over 50 µM, the “EC50 schizont net growth area” value [1, 5] was 9.24 µM and the CC20 hepatic nuclei [2, 5] was 5.73 µM. For the same compound, the maximum inhibition [3, 5] was 108%.

`CCC(C)C1OC2(CCC1C)CC1CC(CC=C(C)C(OC3CC(OC)C(OC4CC(OC)C(O)C(C)O4)C(C)O3)C(C)C=CC=C3COC4C(O)C(C)=CC(C(=O)O1)C34O)O2` (stereo unspecified) [Ivermectin] was tested, and the EC50 hypnozoite quantity [1, 14] was over 10 µM, the “EC50 schizont net growth area” value [1, 14] was over 3.33 µM and the CC20 hepatic nuclei [2, 14] was over 10 µM. For the same compound, the maximum inhibition [3, 14] was 69.8%.

With `Cn1c(Sc2ncnc3sccc23)nc2ccccc21` the EC50 hypnozoite quantity [1, 7] was over 50 µM, the “EC50 schizont net growth area” value [1, 7] was over 16.7 µM and the CC20 hepatic nuclei [2, 7] was 39.4 µM. It also gave a maximum inhibition [3, 7] of 97%.

In the case of `Oc1c(C(c2ccncc2)N2CCCC2)ccc2cccnc12` (stereo unspecified), the EC50 hypnozoite quantity [1, 5] was over 50 µM, the CC20 hepatic nuclei [2, 5] was over 50 µM and the maximum inhibition [3, 5] was 80.2%.
